Reference: patent publication US6537566B1, “Compositions and methods for the non-invasive treatment of uterine fibroid cells” (priority 1999, dated 2003)
Where two headings read alike, the source gives them in different places.

Assays:
Type in all cases: cell-based, human
[1] = system: uterine fibroid leiomyoma cells; assay: DNA content experiment similar to Example 1, GF109203x versus α-tocopherol succinate, 6 days (FIGS. 5A & 5B); details: comparison of FIG. 5A with 5B; DNA content at time=6 days
Description: (§1) Method: Fibroid tissue was obtained from patients undergoing hysterectomy for symptomatic leiomyomata, and leiomyoma cells were isolated from the tissue using standard techniques. Leiomyoma cells in 5% fetal calf serum were plated at 22,000 cells/well in 12-well plate. Cells were allowed to acclimate and grow for 24 hours before the start of the experiment. At time=0, the DNA content of the wells was determined (32+/−0.6 ng/well), and the cells were treated with different concentrations of the FGI agents as shown in FIG. 3A in 5% fetal calf serum. Controls received fetal calf serum alone. After treatment at time=4 days, the DNA content of each well was determined using standard methods. All points were determined in triplicate and are the mean +/− standard error.
Clearly from Examples 1 & 2, tocopherol related substrates are potential FGI agents. This was expected because of tocopherol's effect on the PKC pathway. However, non-tocopherol related substrates that can appropriate appropriately effect the PKC pathway were also identified as potential FGI agents. Therefore, GF109203x, a protein kinase C inhibitor, was tested in an experiment similar to that of Example 1 to determine the efficacy of a non-tocopherol related, identified potential FGI agent to inhibit fibroid leiomyoma cell proliferation. Here, the DNA content of treated wells was determined at time=6 days. […]

[2] = system: uterine fibroid leiomyoma cells; assay: DNA content assay of growing leiomyoma cells treated with FGI agents (Example 1, 4 days); details: for IC50: read-out: IC50 (= 80 ng) Concentration; for NG0 (= 32 ng) Concentration (no net growth): concentration giving the time=0 DNA content of 32 ng/well
Description: A DNA assay was used for determining the effect of potential FGI agents on the growth of uterine fibroid leiomyoma cells. The assay determined the effect of various concentrations of an individual FGI agent on the accumulation of DNA in an actively growing population of uterine fibroid leiomyoma cells. The accumulation of DNA in treated cell populations relative to untreated controls was an indication the efficacy of the FGI agent for inhibiting fibroid cell proliferation.
as §1
The significance of the IC50 point was that it represented an estimated point relative to which a substrate may in part be gauged as an effective FGI agent. The NG0 (no net growth) was the point on the graph corresponding to the time=0 or starting DNA content of the wells.

[3] = system: uterine fibroid leiomyoma cells; assay: Separate DNA content experiment under conditions similar to Example 1, read at 6 days (FIG. 3B); details: DNA content determined at time=6 days
Description: as §1
FIG. 3B is a graph of the results for α-tocopherol succinate from a separate experiment under conditions similar to Example 1. Here, the DNA content of treated wells was determined at time=6 days. The area under the horizontal line indicates the concentration at which net cell death occurred in this experiment (˜38 μM).

[4] = system: uterine fibroid leiomyoma cells; assay: Growth of leiomyoma cells with low added concentrations over background tocopherols (Example 2); details: added concentrations ranging from 1 to 5 μM over background tocopherols (about 10 μM); 4 days
Description: as §1
Method: See Example 1 above generally. Vitamin C, an antioxidant that is not an identified potential FGI agent, was used as an experimental substrate control.
Results: The results are illustrated in FIGS. 4A and 4B. The DNA concentration of controls at time=4 days was 99+/−0.2 ng/well (the “0” concentration in FIGS. 4A & 4B). Growth of uterine fibroid cells clearly occurred in the presence of a background concentration of tocopherols. […] However, upon the addition of 10 μM over back ground tocopherol treated wells began to show detectable inhibition of the growth of uterine fibroid cell populations.

[5] = Homo sapiens, 96 h, increase in DNA content 50% of that of control wells, time=4 days, 5% fetal calf serum, N/A = condition not attained
[6] = time=4 days, 5% fetal calf serum, N/A = condition not attained
[7] = increase in DNA content 50% of that of control wells, time=4 days, 5% fetal calf serum, N/A = condition not attained

Structure (SMILES)	NG0 (= 32 ng) Concentration (no net growth) [2, 6] [µM]	growth of uterine fibroid cell populations at low added concentrations [4]	also measured
CN(C)CCCn1cc(C2=C(c3c[nH]c4ccccc34)C(=O)NC2=O)c2ccccc21 [GF109203x]	–	–	efficiency at inhibiting fibroid leiomyoma cell proliferation relative to α-tocopherol succinate [1]: ~5 time
CCc1ccc(CCOc2ccc(CC3SC(=O)NC3=O)cc2)nc1 (centres unmarked) [Pioglitazone]	88	–	IC50 [2, 5]: 40 µM
CN(CCOc1ccc(CC2SC(=O)NC2=O)cc1)c1ccccn1 (centres unmarked) [Rosiglitazone]	90	–	IC50 ([2]; Homo sapiens, 96 h): 40 µM
Cc1c(C)c2c(c(C)c1O)CCC(C)(COc1ccc(CC3SC(=O)NC3=O)cc1)O2 (centres unmarked) [Troglitazone]	50	–	IC50 [2, 5]: 12 µM
Cc1c(C)c2c(c(C)c1OC(=O)CCC(=O)O)CC[C@@](C)(CCC[C@H](C)CCC[C@H](C)CCCC(C)C)O2 [α-Tocopherol succinate]	38	substantially uninhibited	IC50 [2, 7]: 22 µM; concentration at which net cell death occurred [3]: ~38 µM
Cc1c(C)c2c(c(C)c1O)CC[C@@](C)(CCC[C@H](C)CCC[C@H](C)CCCC(C)C)O2 [α-Tocopherol]	–	substantially uninhibited	IC50 [2, 7]: 27 µM
Cc1cc(O)c(C)c2c1O[C@](C)(CCC[C@H](C)CCC[C@H](C)CCCC(C)C)CC2 [β-Tocopherol]	–	substantially uninhibited	–
